# From PMC7615676, “Short-course combination treatment for experimental chronic Chagas disease” (Science translational medicine, 2023)
# Values joined by “and” are separate entries in the source; they are usually repeats but may differ in a detail not shown here. Identical values can stand only once.
# Legend:
# HepG2 cells = test: Seahorse MST (mitochondrial stress test), oxygen consumption rate; assay type: cell-based; conditions: lowest concentration reducing OCR >15% vs DMSO
# Description: To measure the Oxygen Consumption Rate (OCR) in cells following compound treatment, the Seahorse XFe96 Extracellular Flux Analyser (Agilent) was used ([69]). HepG2 cells were maintained in DMEM medium (Invitrogen #11966-025) supplemented with 10 mM galactose, 1 mM sodium pyruvate, 5 mM HEPES, 2 mM GlutaMAX, 10% fetal bovine serum and 50 μg/ml gentamycin. Cells were maintained in a 37 °C, 5% CO2 humidified atmosphere. The measurement of OCR was performed as previously described ([70], [71]) with minor modifications. Briefly, HepG2 cells were seeded in an XF96-well plate at 14000 cells per 100 μl cell culture medium per well and incubated in a 37 °C, 5% CO2 humidified atmosphere for 24 hours. Following incubation, the culture medium was replaced with 175 μl pre-warmed, serum-free XF base assay medium (Agilent), supplemented with 2 mM L-glutamine, 1 mM sodium pyruvate and 10 mM galactose (pH 7.4) and incubated at 37 °C for one hour. Test compounds (compound 3 and 4) were maintained in DMSO and a four-point dose response (final concentrations 10, 20, 40 and 80 μM), plus 0.4% DMSO control, were diluted to 8× concentration in XF assay medium and 25 μL was loaded into Port A of the XF Assay Cartridge. The mito-stress test components oligomycin (1 μM final), carbonyl cyanide-4-(trifluoromethoxy)-phenylhydrazon [FCCP] […]
# [1] = tested on: isolated rat liver mitochondria; test: calcium loading capacity (CLC) in rat liver mitochondria; assay type: biochemical; conditions: minimum effective concentration
# Description: The CLC of freshly isolated liver mitochondria was determined as previously described ([70]). Briefly, mitochondria were suspended at 0.2 mg/ml in incubation buffer B, supplemented with 100 μM arsenazo III, 2.5 μM rotenone and 1 μg/ml oligomycin in each well of a 96 well microplate (control and treated mitochondria were assayed simultaneously) and absorbance measured every 2 seconds at 650 nm in a FlexStation3 microplate reader (Molecular Devices, Sunnyvale, CA, USA). After approximately 1 minute of reading, Ca^2+ was added (0.5-1 μmol/ mg mitochondrial protein) followed by the addition of 10 mM succinate as the mitochondrial substrate. The CLC was calculated as the difference in optical density (ΔOD) between the point at which mitochondria were energized and the point where mitochondrial permeability transition was triggered (i.e., the lowest OD reading before calcium release via MPT).
# The concentration-response relationship was modelled using a robust fit of a cubic polynomial regression ([74], [75]). The fitted curves were then used to calculate the Minimum Effective Concentration (MEC). The MEC was defined as the lowest concentration where the fitted curve exceeded 3 standard deviations (SD) around the DMSO mean response. SD was estimated from the deviations of DMSO and compound treated wells around the fitted means, using a robust estimator based on Gini’s mean difference ([76]).
# [2] = tested on: chronic T. cruzi infection (CL Brener) in BALB/c mice; test: bioluminescent mouse model of chronic Chagas disease; assay type: in vivo, Trypanosoma cruzi
# Description: Compound 2 was evaluated in a bioluminescent mouse model of Chagas disease designed to mimic chronic infections. This model successfully differentiates the clinically used drugs from the clinically invalidated CYP51 inhibitors ([21]). Key features of this model include immunosuppression of mice following cessation of treatment to allow detection of parasite relapses, and ex vivo bioluminescence imaging that allows tissue-specific visualization of parasites. Treatments are considered efficacious if there is no evidence of bioluminescence during in vivo (mouse) and ex vivo (organ/tissue) imaging following immunosuppression ([38]). Under these experimental conditions, compound 2 was able to prevent parasite relapse in 2 of the 6 mice treated orally twice daily for 10 days at 50 mg/kg (Table S1). Increasing the dose to 100 mg/kg or extending treatment duration to 21 days provided similar partial efficacy rates.
# Experiments followed a similar protocol to that described in ([21]). All animals were female (BALB/cAnNCrlC mice, 6-8 weeks old, strain code: 028, supplier: Charles River (UK)). We have previously shown that there are no differences in the bioluminescence profiles between infected males and females ([77]). Animals were maintained under specific pathogen-free conditions in individually ventilated cages. They experienced a 12-hour light/dark cycle, with access to food and water ad libitum. Mice were randomly selected and distributed into cages on arrival day by a Named Animal Care and Welfare Officer (NACWO), at LSHTM biological service facility (BSF). For efficacy experiments animals were randomly selected from the cages and ear/tail tagged on the infection day, starting from number 1. The same mouse ID was kept until the experimental endpoint. Mice were infected by i.p injection with 1x10^3 trypomastigotes derived from SCID mouse blood ([67]). To confirm infection, mice were imaged around the peak of parasite load. […] Treatment initiated in the chronic stage of infection ranging between 90 and 127 days post-infection. Drugs were administered by oral gavage (~200 μl), and vehicle only (0.5% w/v hydroxypropylmethylcellulose with 0.4% v/v Tween 80 and 0.5% v/v benzyl alcohol) was administered to control mice. Total number of animals for each study arm is shown in the relevant figures. To detect residual infection, mice were immunosuppressed using cyclophosphamide (at 200 mg/kg) by ip injection every 4 days for a maximum of three doses. For in vivo imaging, mice were injected ip with 150 mg/kg D-luciferin in Dulbecco’s Ca^2+/Mg^2+-free PBS, then anaesthetized using 2.5% (v/v) isofluorane in oxygen. Images were obtained using an IVIS Lumina II system (Caliper Life Science) 10−20 min after D-luciferin administration. The detection threshold was established from uninfected mice. Organs/tissue samples were assessed by ex vivo imaging as described previously ([21]). The limit of detection in this system is less than 20 parasites ([29]).
structure (smiles),measurement,setting,value
"COc1ccc(-c2c(C)[nH]c3nc(N)nc(C)c23)c(OC)c1 [Compound 4, 5-(2,4-Dimethoxyphenyl)-4,6-dimethyl-7H-pyrrolo[2,3-d]pyrimidin-2-amine]","Seahorse MST, HepG2, LEC",HepG2 cells,>80 µM
same,"Calcium loading capacity, rat mitochondria, MEC",[1],>200 µM
"COc1cc(F)ccc1-c1c(C)[nH]c2nc(N)nc(C)c12 [Compound 2, 5-(4-Fluoro-2-methoxyphenyl)-4,6-dimethyl-7H-pyrrolo[2,3-d]pyrimidin-2-amine]",No. cured/ no. tested,"[2]; 50 mg/kg bid oral, 10 days",2 of the 6 and 2/6
same,No. cured/ no. tested,"[2]; 50 mg/kg bid oral, 21 days",2/6
same,No. cured/ no. tested,"[2]; 100 mg/kg bid oral, 10 days (changed to once daily after day 1)",2/4
same,toxicity in infected mice,"[2]; 100 mg/kg bid, after first day of treatment",two mice were culled due to toxicity
"COc1cc(Cl)ccc1-c1c(C)[nH]c2nc(N)nc(C)c12 [Compound 3, 5-(4-Chloro-2-methoxyphenyl)-4,6-dimethyl-7H-pyrrolo[2,3-d]pyrimidin-2-amine]",No. cured/ no. tested,"[2]; 50 mg/kg bid oral, 10 days",4/6
same,No. cured/ no. tested,"[2]; 50 mg/kg bid oral, 20 days (changed to 11 bid + 9 qd)",2/6
same,tolerability in infected mice,"[2]; 50 mg/kg bid, 20-day regimen",tolerability issues
same,"Seahorse MST, HepG2, LEC",HepG2 cells,80 µM
same,"Calcium loading capacity, rat mitochondria, MEC",[1],5.7 µM
"O=C(Cn1ccnc1[N+](=O)[O-])NCc1ccccc1 [Benznidazole, reference compound]",No. cured/ no. tested,"[2]; 100 mg/kg qd oral, 10 days",3/3
same,No. cured/ no. tested,"[2]; 100 mg/kg qd oral, 20 days",6/6
